Measurements reported in US20150094474A1, “AGRICULTURAL CHEMICALS” (Redx Pharma Ltd., priority 2012, published 2015).

Test system: barley
Experiment: Herbicidal bioassay, barley (% necrosis)
Format: in vivo
Procedure, shortened: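 Scoring of % necrosis followed EPPO guideline PP1/135 at specified growth intervals, five replicates per species and treatment. Plants at the 2-4 true leaf stage received Potter-tower sprays of DMSO-diluted compounds across six levels from 0.0001% to 0.05%, with water and DMSO controls.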

CCOC(=O)C(C)Oc1ccc(Oc2ccc(C(F)(F)F)cn2)cc1 (stereo not drawn) [Fluazifop Ethyl ester (62)]
Sum of % necrosis in barley (Dose 0.000001, Day 0): C (less than 50% necrosis)
Sum of % necrosis in barley (Dose 0.000001, Day 1): C (less than 50% necrosis)
Sum of % necrosis in barley (Dose 0.000001, Day 3): C (less than 50% necrosis)
Sum of % necrosis in barley (Dose 0.000001, Day 7): C (less than 50% necrosis)
Sum of % necrosis in barley (Dose 0.000001, Day 10): C (less than 50% necrosis)
Sum of % necrosis in barley (Dose 0.000001, Day 14): C (less than 50% necrosis)
Sum of % necrosis in barley (Dose 0.000001, Day 21): C (less than 50% necrosis)
Sum of % necrosis in barley (Dose 0.000005, Day 0): C (less than 50% necrosis)
Sum of % necrosis in barley (Dose 0.000005, Day 1): C (less than 50% necrosis)
Sum of % necrosis in barley (Dose 0.000005, Day 3): C (less than 50% necrosis)
Sum of % necrosis in barley (Dose 0.000005, Day 7): C (less than 50% necrosis)
Sum of % necrosis in barley (Dose 0.000005, Day 10): C (less than 50% necrosis)
Sum of % necrosis in barley (Dose 0.000005, Day 14): C (less than 50% necrosis)
Sum of % necrosis in barley (Dose 0.000005, Day 21): C (less than 50% necrosis)
Sum of % necrosis in barley (Dose 0.00001, Day 0): C (less than 50% necrosis)
Sum of % necrosis in barley (Dose 0.00001, Day 1): C (less than 50% necrosis)
Sum of % necrosis in barley (Dose 0.00001, Day 3): C (less than 50% necrosis)
Sum of % necrosis in barley (Dose 0.00001, Day 7): C (less than 50% necrosis)
Sum of % necrosis in barley (Dose 0.00001, Day 10): C (less than 50% necrosis)
Sum of % necrosis in barley (Dose 0.00001, Day 14): C (less than 50% necrosis)
Sum of % necrosis in barley (Dose 0.00001, Day 21): B (50%-80% necrosis)
Sum of % necrosis in barley (Dose 0.00005, Day 0): C (less than 50% necrosis)
Sum of % necrosis in barley (Dose 0.00005, Day 1): C (less than 50% necrosis)
Sum of % necrosis in barley (Dose 0.00005, Day 3): C (less than 50% necrosis)
Sum of % necrosis in barley (Dose 0.00005, Day 7): C (less than 50% necrosis)
Sum of % necrosis in barley (Dose 0.00005, Day 10): C (less than 50% necrosis)
Sum of % necrosis in barley (Dose 0.00005, Day 14): C (less than 50% necrosis)
Sum of % necrosis in barley (Dose 0.00005, Day 21): B (50%-80% necrosis)
Sum of % necrosis in barley (Dose 0.0001, Day 0): C (less than 50% necrosis)
Sum of % necrosis in barley (Dose 0.0001, Day 1): C (less than 50% necrosis)
Sum of % necrosis in barley (Dose 0.0001, Day 3): C (less than 50% necrosis)
Sum of % necrosis in barley (Dose 0.0001, Day 7): C (less than 50% necrosis)
Sum of % necrosis in barley (Dose 0.0001, Day 10): C (less than 50% necrosis)
Sum of % necrosis in barley (Dose 0.0001, Day 14): C (less than 50% necrosis)
Sum of % necrosis in barley (Dose 0.0001, Day 21): A (over 80% necrosis)
Sum of % necrosis in barley (Dose 0.0005, Day 0): C (less than 50% necrosis)
Sum of % necrosis in barley (Dose 0.0005, Day 1): C (less than 50% necrosis)
Sum of % necrosis in barley (Dose 0.0005, Day 3): C (less than 50% necrosis)
Sum of % necrosis in barley (Dose 0.0005, Day 7): C (less than 50% necrosis)
Sum of % necrosis in barley (Dose 0.0005, Day 10): C (less than 50% necrosis)
Sum of % necrosis in barley (Dose 0.0005, Day 14): C (less than 50% necrosis)
Sum of % necrosis in barley (Dose 0.0005, Day 21): A (over 80% necrosis)
